According to patent publication US20160272613A1, “Pyridazinone Derivatives and their use as Herbicides” (BAYER CROPSCIENCE AKTIENGESELLSCHAFT, priority 2013, published 2016):

What was measured:
Assay type in all cases: in vivo
Viola tricolor [1] = assay: Pre-emergence herbicidal action against harmful plants; conditions: 320 g/ha, visual score after 3 weeks vs untreated controls
Description: (§1) Seeds of monocotyledonous and dicotyledonous weed plants and crop plants are laid out in wood-fiber pots in sandy loam and covered with soil. The compounds of the invention, formulated in the form of wettable powders (WP) or as emulsion concentrates (EC), are then applied to the surface of the covering soil in the form of an aqueous suspension or emulsion at a water application rate equating to 600 to 800 l/ha, with addition of 0.2% wetting agent. After the treatment, the pots are placed in a greenhouse and kept under good growth conditions for the trial plants. The damage to the trial plants is scored visually after a trial duration of 3 weeks by comparison with untreated controls (herbicidal activity in percent (%): 100% efficacy=the plants have died, 0% efficacy=like control plants). In this trial, for example, compound no.

Cyperus esculentus = assay: as above; conditions: 320 g/ha, visual score after 3 weeks vs untreated controls
Description: as §1

Stellaria media [2] = assay: as above; conditions: 320 g/ha, visual score after 3 weeks vs untreated controls
Description: as §1

Amaranthus retroflexus = assay: as above; conditions: 320 g/ha, visual score after 3 weeks vs untreated controls
Description: as §1

Abutilon theophrasti [3] = assay: as above; conditions: 320 g/ha, visual score after 3 weeks vs untreated controls
Description: as §1

Veronica persica [4] = assay: as above; conditions: 320 g/ha, visual score after 3 weeks vs untreated controls
Description: as §1

Ipomoea purpurea [5] = assay: as above; conditions: 320 g/ha, visual score after 3 weeks vs untreated controls
Description: as §1

Viola tricolor [6] = assay: Post-emergence herbicidal action against harmful plants; conditions: 80 g/ha, visual score after about 3 weeks vs untreated controls
Procedure: (§2) Seeds of monocotyledonous and dicotyledonous weed and crop plants are laid out in sandy loam in wood-fiber pots, covered with soil and cultivated in a greenhouse under good growth conditions. 2 to 3 weeks after sowing, the trial plants are treated at the one-leaf stage. The compounds of the invention, formulated in the form of wettable powders (WP) or as emulsion concentrates (EC), are then sprayed onto the green parts of the plants in the form of an aqueous suspension or emulsion at a water application rate equating to 600 to 800 I/ha, with addition of 0.2% wetting agent. After the trial plants have been left to stand in a greenhouse under optimal growth conditions for about 3 weeks, the efficacy of the formulations is scored visually in comparison to untreated controls (herbicidal action in percent (%): 100% efficacy=the plants have died, 0% efficacy=like control plants). In this trial, for example, compound no.

Stellaria media [7] = assay: as above; conditions: 80 g/ha, visual score after about 3 weeks vs untreated controls
Procedure: as §2

Abutilon theophrasti [8] = assay: as above; conditions: 80 g/ha, visual score after about 3 weeks vs untreated controls
Procedure: as §2

Veronica persica [9] = assay: as above; conditions: 80 g/ha, visual score after about 3 weeks vs untreated controls
Procedure: as §2

Ipomoea purpurea [10] = assay: as above; conditions: 80 g/ha, visual score after about 3 weeks vs untreated controls
Procedure: as §2

Cn1ncc(-c2ccc(C(F)(F)F)c(=O)n2C)c(O)c1=O [1-4, 4-hydroxy-2-methyl-5-(1-methyl-3-(trifluoromethyl)pyrid-2-on-6-yl)-pyridazin-3-one]
at least 80%: herbicidal activity in percent (efficacy) (Viola tricolor [1]) | herbicidal activity in percent (efficacy) (Cyperus esculentus) | herbicidal activity in percent (efficacy) (Stellaria media [2]) | herbicidal activity in percent (efficacy) (Amaranthus retroflexus) | herbicidal activity in percent (efficacy) (Abutilon theophrasti [3]) | herbicidal activity in percent (efficacy) (Veronica persica [4]) | herbicidal activity in percent (efficacy) (Ipomoea purpurea [5]) | herbicidal action in percent (efficacy) (Viola tricolor [6]) | herbicidal action in percent (efficacy) (Stellaria media [7]) | herbicidal action in percent (efficacy) (Abutilon theophrasti [8]) | herbicidal action in percent (efficacy) (Veronica persica [9]) | herbicidal action in percent (efficacy) (Ipomoea purpurea [10])
